From patent publication US20230085945A1, “ORTHOGONAL SAFETY SWITCHES TO ELIMINATE GENETICALLY ENGINEERED CELLS” (The Board of Trustees of the Leland Stanford Junior …, priority 2020, published 2023)

Assays:
[1] = system: undifferentiated NANOG^iCasp9-YFP hPSCs; test: Clonal assay for surviving hPSC colonies after AP20187 treatment; assay type: cell-based, human; conditions: 1 nM AP20, 24-hour treatment; across 7 independent experiments
Protocol: FIG. 3: Implementation of the NANOG^iCasp9-YFP safety switch. A) Schema depicting how drug AP20187 induces dimerization of Caspase9 in undifferentiated NANOG^iCasp9-YFP hESCs, subsequently triggering cell death (top left). NANOG^iCasp9-YFP hESCs were treated for 24 hours with increasing concentrations of AP20187. AP20187 was withdrawn, and cultures were further grown in mTeSR1 to allow any surviving hESCs to grow; any surviving colonies were counted 1 week later (top right). Alkaline phosphatase staining of whole wells of a 12-well plate after 24-hour treatment with AP20187 (bottom). […] Bioluminescent imaging of mice occurred weekly for 5 weeks with no transplant control (NTC) animals included for relative luminescence normalization. Total flux (photons/sec) was measured for each animal and averaged. […] The percentage of surviving cells was calculated relative to untreated controls. […]
Clonal assay for surviving hPSC colonies—hPSCs were dissociated into single cells with Accutase (Thermo Fisher) and 1×10^6 cells were plated per well of a 6-well plate that was pre-coated with Matrigel. […] Subsequently, AP20187 was withdrawn altogether and hPSCs were cultured with mTeSR1 for 1 week, to allow any surviving hPSCs to regrow and to form clonal colonies, which were then scored (i.e., 1 surviving colony after AP20187 treatment of 1×10^6 hPSCs indicated survival of 1 out of 10^6 cells). […]

[2] = system: ACTB^OiCasp9-mPlum;NANOG^iCasp9-YFP hPSCs and differentiated liver, bone and neural progenitors; test: Killing of ACTB^OiCasp9-mPlum;NANOG^iCasp9-YFP hPSCs and differentiated derivatives by AP21 or AP20 (alamar blue); assay type: cell-based, human; conditions: dual-transgenic line; 1 nM, 24 hours
Protocol: FIG. 6: Rationale, design and implementation of the ACTB^OiCasP9-mPlum safety switch. A) Intended application of the dual ACTB^OiCasp9-mPlum;NANOG^iCasp9-YFP safeguard. B) Cas9 RNP/AAV6-based knock-in strategy for ACTB^iCasp9-mPlum targeting, which was performed in the NANOG^iCasp9-YFP hESC line. C) 5×10^5 ACTB^OiCasp9-mPlum; NANOG^iCasp9-YFP hESCs were treated with control media or 1-1000 nM AP21967 for 24 hours. Cell viability was analyzed using alamar blue. D) ACTB^OiCasp9-mPlum;NANOG^iCasp9-YFP and ACTB^TK-mPlum; NANOG^iCasp9-YFP hESCs (negative control), in addition to their respective differentiated derivatives, were treated for 24 hours with 1 nM of AP21967. E) 5×10^5 ACTB^OiCasp9-mPlum; NANOG^iCasp9-YFP hESCs, and their respective differentiated derivatives, were treated with control media, 1 nM of AP21967 or and 1 nM of AP20187 for 24 hours. Surviving cells were analyzed by alamar blue. F) 10^6 ACTB^OiCasp9-mPlum;NANOG^iCasp9-YFP hESCs engineered to express CAG-AkaLuciferase were treated with control media or 1 nM AP20187 for 24 hours, and then subcutaneously transplanted into the right and left dorsal flanks of NOD-SCID Il2rg^−/− mice (10^6 cells per flank). 4 weeks post-transplant, teratomas formed and AP21967 was intraperitoneally administered once at 10 mg/kg. […] Total flux (photons/sec) was measured for each animal and was averaged.

CC[C@H](C(=O)N1CCCC[C@H]1C(=O)O[C@H](CCc1ccc(OC)c(OC)c1)c1cccc(OCC(=O)NCC(CNC(=O)COc2cccc([C@@H](CCc3ccc(OC)c(OC)c3)OC(=O)[C@@H]3CCCCN3C(=O)[C@@H](CC)c3cc(OC)c(OC)c(OC)c3)c2)CN(C)C)c1)c1cc(OC)c(OC)c(OC)c1 [AP20] was tested, and the “depletion of undifferentiated hPSCs” value [1] was 1.75×10^6 fold and the “killing of undifferentiated and differentiated cells” value [2] was “selectively kill undifferentiated hPSCs”.
